Measured values from patent US8383786B2, “Pesticidal compositions” (Dow AgroSciences, LLC., priority 2009, dated 2013).

What was measured:
[1] = tested on: beet armyworm (BAW; Spodoptera exigua: Lepidoptera); experiment: 128-well diet tray assay on beet armyworm (BAW 50); type: in vivo; conditions: 144 h, 50 ug/cm^2 of test compound on diet, second instar BAW larvae, 25° C., six days, average of eight wells, read-out: BAW 50 (percent mortality)
Description: (§1) Bioassays on beet armyworm (BAW; Spodoptera exigua: Lepidoptera) were conducted using either a 96-well microtiter plate-based high throughput (HTS) bioassay or a 128-well diet tray assay. The HTS assay is a based on a modification of Lewer et al. J. Nat. Prod. 2006, 69, 1506. BAW eggs were placed on top of artificial diet (100 microliters (μL)) in each well of 96-well microtiter plate. The diet was pretreated with test compounds (12 micrograms (μg) dissolved in 30 μL of DMSO-acetone-water mixture) layered on top of the diet using a liquid handling system and then allowed to dry for several hours. Infested plates were then covered with a layer of sterile cotton batting and the plate lid, and then held in the dark at 29° C. Mortality was recorded at 6 days (d) post-treatment. Each plate had six replicates. The percent mortality was calculated from the average of the six replicates. In the case of the 128-well diet assay, three to five second instar BAW larvae were placed in each well (3 mL) of the diet tray that had been previously filled with 1 mL of artificial diet to which 50 ug/cm^2 of the test compound (dissolved in 50 μL of 90:10 acetone/water mixture) had been applied (to each of eight wells) and then allowed to dry. Trays were covered with a clear self-adhesive cover, and held at 25° C., 14:10 light:dark for six days. Percent mortality was recorded for the larvae in each well; activity in the eight wells was then averaged. In Table 2 under both the BAW HTS and the BAW 50 headings, an “A” means that the compound was tested and at least 50 percent mortality was observed whereas, “B” means that either (1) the compound was tested and less than 50 percent mortality was observed or (2) the compound was not tested.

[2] = tested on: beet armyworm (BAW; Spodoptera exigua: Lepidoptera); experiment: 96-well microtiter plate-based high throughput (HTS) bioassay on beet armyworm (BAW HTS); type: in vivo; conditions: 96-well plate; 12 μg test compound on 100 μL diet; BAW eggs; 29° C.; 6 days post-treatment; average of six replicates
Description: as §1

SMILES | mortality at 50 µg/cm2 [1] | BAW HTS (percent mortality) [2]
CO[C@@H]1[C@@H](OC)[C@H](C)O[C@@H](OC2Cc3ccc(-c4ccnc(-c5ccc(Cl)cc5)n4)cc3C2)[C@@H]1OC (stereo partly drawn) [Compound 1C, 2-(4-Chlorophenyl)-4-[2-((2R,3R,4R,5S,6S)-3,4,5-trimethoxy-6-methyl-tetrahydropyran-2-yloxy)-indan-5-yl]-pyrimidine] | > 50% | B (either (1) the compound was tested and less than 50 percent mortality was observed or (2) the compound was not tested)
CO[C@@H]1[C@@H](OC)[C@H](C)O[C@@H](OC2Cc3ccc(-c4ccnc(-c5ccc(Cl)cc5Cl)n4)cc3C2)[C@@H]1OC (stereo partly drawn) [Compound 2C, 2-(2,4-Dichlorophenyl)-4-[2-((2R,3R,4R,5S,6S)-3,4,5-trimethoxy-6-methyl-tetrahydropyran-2-yloxy)-indan-5-yl]-pyrimidine] | < 50% | A (the compound was tested and at least 50 percent mortality was observed)
CO[C@@H]1[C@@H](OC)[C@H](C)O[C@@H](OC2Cc3ccc(-c4ccnc(-c5cccc(C(F)(F)F)c5)n4)cc3C2)[C@@H]1OC (stereo partly drawn) [Compound 3C, 2-(3-Trifluoromethylphenyl)-4-[2-((2R,3R,4R,5S,6S)-3,4,5-trimethoxy-6-methyl-tetrahydropyran-2-yloxy)-indan-5-yl]-pyrimidine] | > 50% | B (either (1) the compound was tested and less than 50 percent mortality was observed or (2) the compound was not tested)
CO[C@@H]1[C@@H](OC)[C@H](C)O[C@@H](OC2Cc3ccc(-c4ccnc(-c5ccc(C(F)(F)F)cc5)n4)cc3C2)[C@@H]1OC (stereo partly drawn) [Compound 4C, 2-(4-Trifluoromethylphenyl)-4-[2-((2R,3R,4R,5S,6S)-3,4,5-trimethoxy-6-methyl-tetrahydropyran-2-yloxy)-indan-5-yl]-pyrimidine] | > 50% | B (either (1) the compound was tested and less than 50 percent mortality was observed or (2) the compound was not tested)
COc1ccc(-c2nccc(-c3ccc4c(c3)CC(O[C@@H]3O[C@@H](C)[C@H](OC)[C@@H](OC)[C@H]3OC)C4)n2)cc1 (stereo partly drawn) [Compound 5C, 2-(4-methoxyphenyl)-4-[2-((2R,3R,4R,5S,6S)-3,4,5-trimethoxy-6-methyl-tetrahydropyran-2-yloxy)-indan-5-yl]-pyrimidine] | > 50% | A (the compound was tested and at least 50 percent mortality was observed)
CO[C@@H]1[C@@H](OC)[C@H](C)O[C@@H](OC2Cc3ccc(-c4ccnc(-c5cccnc5)n4)cc3C2)[C@@H]1OC (stereo partly drawn) [Compound 6C, 2-Pyridin-3-yl-4-[2-((2R,3R,4R,5S,6S)-3,4,5-trimethoxy-6-methyl-tetrahydropyran-2-yloxy)-indan-5-yl]-pyrimidine] | < 50% | B (either (1) the compound was tested and less than 50 percent mortality was observed or (2) the compound was not tested)
CO[C@@H]1[C@@H](OC)[C@H](C)O[C@@H](OC2Cc3ccc(-c4ccnc(-c5ccccc5)n4)cc3C2)[C@@H]1OC (stereo partly drawn) [Compound 7C, 2-Phenyl-4-[2-((2R,3R,4R,5S,6S)-3,4,5-trimethoxy-6-methyl-tetrahydropyran-2-yloxy)-indan-5-yl]-pyrimidine] | < 50% | B (either (1) the compound was tested and less than 50 percent mortality was observed or (2) the compound was not tested)
CO[C@@H]1[C@@H](OC)[C@H](C)O[C@@H](OC2Cc3ccc(-c4ccn(-c5ccc(C(F)(F)F)cn5)n4)cc3C2)[C@@H]1OC (stereo partly drawn) [Compound 8C, 5-trifluoromethyl-2-{3-[2-((2R,3R,4R,5S,6S)-3,4,5-trimethoxy-6-methyl-tetrahydropyran-2-yloxy)-indan-5-yl]-pyrazol-1-yl}-pyridine] | > 50% | A (the compound was tested and at least 50 percent mortality was observed)
CO[C@@H]1[C@@H](OC)[C@H](C)O[C@@H](OC2Cc3ccc(-c4ccn(-c5nnc(C(F)(F)F)s5)n4)cc3C2)[C@@H]1OC (stereo partly drawn) [Compound 9C, 2-trifluoromethyl-5-{3-[2-((2R,3R,4R,5S,6S)-3,4,5-trimethoxy-6-methyl-tetrahydropyran-2-yloxy)-indan-5-yl]-pyrazol-1-yl}-[1,3,4]thiadiazole] | > 50% | A (the compound was tested and at least 50 percent mortality was observed)
CO[C@@H]1[C@@H](OC)[C@H](C)O[C@@H](OC2Cc3ccc(-c4ccn(-c5ccc(OC(F)(F)C(F)(F)F)cc5)n4)cc3C2)[C@@H]1OC (some centres unmarked) [Compound 10C] | > 50% | A (the compound was tested and at least 50 percent mortality was observed)
